Assay results: patent publication US8580843B2, “Use of diindolylmethane (DIM) compounds and derivatives as neuroprotective agents” (Colorado State University Research Foundation, priority 2008, dated 2013)

Legend:
[1] = system: primary striatal neurons co-cultured with activated astrocytes; experiment: Astrocyte-neuron co-culture: apoptosis of primary striatal neurons (caspase activity, Annexin V binding); type: cell-based, mouse; conditions: astrocytes co-treated with 25 nM for 8 hours, six hours of co-culture; FIG. 6 C-D
Description: Astrocyte Neuron Co-Culture. Cells were isolated as described above and astrocytes grown to confluence on permeable cell culture inserts (BD Biosciences, San Jose, Calif.) prior to treatment. Astrocytes were then treated with MPTP (10 μM), TNF-α (10 pg/ml) and IFN-γ (1 ng/ml) in the presence or absence of DIM-C-pPhtBu (10 μM), Rosiglitazone (10 μM) AMT (25 nM), or DMSO vehicle control for 8 hours. Media was then removed, and the astrocytes washed three times with sterile PBS to prevent carryover of treatment medium to the neurons, and the inserts were placed directly in each well over cultured neurons. Astrocyte-containing inserts were removed following six hours of co-culture, and neuronal caspase activity and phosphatidylserine translocation were measured by widefield fluorescence microscopy using the general cell permeable fluorescent caspase substrate rhodamine 110, bis-(L-aspartic acid amide) and an Annexin V Alexa Fluor 680 conjugate, respectively. Images were acquired using a Zeiss 20× air PlanApochromat objective and at least 10 microscopic fields were examined per treatment group over three independent experiments.
The efficacy of DIM-C-pPhtBu in preventing astrocyte-dependent neuronal apoptosis was examined in FIG. 6. Astrocytes were grown to confluence in cell culture inserts that are permeable to small molecules but prevent direct cell-cell contact. Following treatment of astrocytes with MPTP and TNF-α/IFN-γ in the presence or absence of DIM-C-pPhtBu (10 μM), rosiglitazone (10 μM), the NOS2 inhibitor AMT (25 nM), or DMSO, astrocytes were washed with PBS and co-incubated directly above primary striatal neurons in neurobasal medium. Indices of neuronal apoptosis were then measured using live-cell fluorescence imaging of caspase activity (FIG. 6A) and Annexin V binding (FIG. 6B). […] The DMSO vehicle control had no suppressive effect.
Differing letters denote statistical significance (p<0.05).

[2] = system: 3-nitrotyrosine protein nitration in astrocytes; experiment: Immunofluorescence of 3-nitrotyrosine adducts (protein nitration) in primary astrocytes treated with MPTP and cytokines; type: cell-based, mouse
Description: Immunofluorescence. Primary astrocytes were grown to confluence on 20 mm serum-coated glass coverslips and treated with saline or MPTP (10 μM), TNF-α (10 pg/ml), and IFN-γ (1 ng/ml) with or without DIM-C-pPhtBu (10 μM), rosiglitazone (10 μM), the NOS2 inhibitor AMT (25 nM) or NOS 1 inhibitor 7-NI (10 μM), or a DMSO vehicle control 8 hours prior to analysis. Immunofluorescence to confirm culture purity was conducted on cells grown to confluence on the 20 mm glass coverslips. Blocking and antibody hybridization was conducted in 1% BSA (w/v) in PBS, and all washes were conducted in PBS. Images were acquired using a Zeiss 20× air PlanApochromat objective and 6-8 microscopic fields were examined per treatment group over no less than three independent experiments. Fluorescent secondary antibodies were used to detect GFAP (488 nmcx/519 nmcm) and Iba1 or nitrosylated protein (647 nmcx/668 nmcm), respectively, while mounting medium containing DAPI (360 nmcx/460 nmcm) was used to identify cell nuclei.
The effect of NOS2 induction by MPTP and inflammatory cytokines on global protein nitration following NO/peroxynitrite (ONOO—) formation in astrocytes was examined by immunofluorescence (FIG. 3). Immunofluorescence using antibodies against GFAP (FITC) and 3-nitrotyrosine adducts (Cy5) was employed to measure the extent of protein nitration within astrocytes treated with MPTP and cytokines, with or without inclusion of DIM-C-pPhtBu (10 μM), rosiglitazone (10 μM), the high-affinity NOS2 inhibitor AMT (25 nM), the NOSI inhibitor 7-NI (10 μM) or a DMSO vehicle control. […] Co-treatment of astroytes with DIM-C-pPhtBu prevented MPTP-induced increases in nitration, resulting in similar levels of 3-nitrotyrosine adducts as saline-treated control cells (FIG. 3C). Mean intracellular fluorescence for 3-nitrotyrosine was quantified and compared between each treatment group (FIG. 3D).

CC1CCN=C(N)S1 (stereo not drawn) [AMT, 2-amino-5,6-dihydro-6-methyl-4H-1,3-thiazine]
Apoptosis in co-cultured striatal neurons (caspase activity and Annexin V-binding) [1]: prevented
MPTP-induced increase in 3-nitrotyrosine formation ([2]; 25 nM co-treatment, astrocytes, FIG. 3D): prevented
Protein nitration in primary astrocytes induced by MPTP and TNF-α/IFN-γ ([2]; FIG. 7(D), concentration not given): prevents protein nitration
